# Test results taken from ChEMBL document CHEMBL6078628, “A perspective on the development of small molecular neprilysin inhibitors (NEPi) with emphasis on cardiorenal disease” (Eur J Med Chem, 2024).
# pIC50, pKi: −log10 of the molar value.
# What was measured:
# Neprilysin [1] = molecular target: T1, Neprilysin (Homo sapiens, UniProt P08473); test: Inhibition of NEP (unknown origin)
# Neprilysin [2] = molecular target: T1, Neprilysin; test: Binding affinity to NEP (unknown origin) assessed as inhibition constant
# [3] = molecular target: T2, Type-2 angiotensin II receptor (Homo sapiens, UniProt P50052); test: Inhibition of Angiotensin-2 receptor (unknown origin)
# T2 sequence (P50052 whole entry): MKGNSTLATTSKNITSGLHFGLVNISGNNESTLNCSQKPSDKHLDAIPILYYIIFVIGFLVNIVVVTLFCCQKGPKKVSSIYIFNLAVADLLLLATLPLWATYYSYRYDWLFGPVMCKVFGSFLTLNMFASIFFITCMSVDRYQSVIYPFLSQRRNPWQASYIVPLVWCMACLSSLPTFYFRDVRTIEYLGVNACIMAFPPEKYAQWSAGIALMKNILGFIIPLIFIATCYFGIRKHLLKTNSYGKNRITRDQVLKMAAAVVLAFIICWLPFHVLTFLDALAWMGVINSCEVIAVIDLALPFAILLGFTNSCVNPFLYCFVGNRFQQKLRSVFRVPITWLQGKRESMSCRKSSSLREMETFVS
# T1 sequence (P08473 whole entry): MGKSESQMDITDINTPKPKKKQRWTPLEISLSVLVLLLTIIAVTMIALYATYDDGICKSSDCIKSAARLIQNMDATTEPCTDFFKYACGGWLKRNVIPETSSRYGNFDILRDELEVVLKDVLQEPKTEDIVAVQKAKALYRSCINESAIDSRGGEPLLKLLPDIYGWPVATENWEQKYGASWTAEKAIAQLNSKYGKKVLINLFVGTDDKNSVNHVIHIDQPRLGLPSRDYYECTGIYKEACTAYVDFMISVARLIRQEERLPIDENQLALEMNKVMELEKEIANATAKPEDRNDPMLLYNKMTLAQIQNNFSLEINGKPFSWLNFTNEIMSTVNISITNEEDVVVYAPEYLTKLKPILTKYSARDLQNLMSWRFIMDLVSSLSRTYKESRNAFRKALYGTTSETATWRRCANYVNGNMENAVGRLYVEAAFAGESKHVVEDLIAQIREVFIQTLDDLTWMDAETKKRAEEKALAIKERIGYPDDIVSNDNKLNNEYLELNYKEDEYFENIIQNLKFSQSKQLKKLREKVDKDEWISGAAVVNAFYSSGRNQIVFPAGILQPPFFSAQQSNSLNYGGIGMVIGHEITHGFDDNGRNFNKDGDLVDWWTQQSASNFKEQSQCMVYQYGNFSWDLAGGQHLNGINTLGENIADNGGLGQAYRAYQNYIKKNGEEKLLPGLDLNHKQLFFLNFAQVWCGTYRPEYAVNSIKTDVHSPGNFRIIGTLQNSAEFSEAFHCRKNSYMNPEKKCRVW
SMILES,pIC50 (Neprilysin [1]),pKi (Neprilysin [2]),pIC50 [3]
COC(c1ccccc1)c1cnc(C(CS)Cc2ccccc2)[nH]1 (stereo not drawn),5.77,,
COCCOC[C@H](CC1(C(=O)N[C@H]2CC[C@@H](C(=O)O)CC2)CCCC1)C(=O)O [CANDOXATRILAT],,8.21,
COc1cc(/C=C2\CCC/C(=C\c3ccc(O)c(OC)c3)C2=O)ccc1O [CYCLOVALONE],,9.19,
O=C(N[C@H]1CCS[C@H]2CCC[C@@H](C(=O)O)N2C1=O)[C@@H](S)Cc1ccccc1 [OMAPATRILAT],8.30,9.35,
N[C@@H](Cc1ccc(Oc2cc(I)c(O)c(I)c2)c(I)c1)C(=O)O [REVERSE TRIIODOTHYRONINE],,,4.53

# Second part, led by results:
pIC50 (Neprilysin [1]),pKi (Neprilysin [2]),SMILES,pIC50 [3]
7.40,,SC[C@@H](Cc1ccccc1)c1nc2cnccc2[nH]1,
7.52,,SC[C@@H](Cc1ccc(-c2ccccc2)cc1)c1nc2cnccc2[nH]1,
